{"source": "patent US20170196888A1", "about": "“COMPOSITIONS AND METHODS FOR TREATING CANCER” (Yeda Research and Development Co. Ltd., priority 2014, published 2017)", "key": {"EGF-induced genes": {"tested_on": "EGF-induced genes", "test": "Affymetrix Exon Array time course of EGF- and DEX-regulated transcripts", "assay_type": "cell-based, human", "conditions": "at 20 minutes", "description": "(§1) RNA was isolated using the PerfectPure kit from 5 Prime (Hamburg, Germany). Affymetrix GeneChip Human Exon 1.0 ST arrays were used and data were deposited in Gene Expression Omnibus (GSE53405). PCR of pre-mRNA or mRNA used forward primers positioned in the second intron or exon, respectively (Table 3 below).\n(§2) All reactions were performed using Power SYBR Green PCR Master Mix (Applied Biosystems, Foster City, CA). For high throughput PCR the Fluidigm® BioMark system was employed. The Affymetrix Expression Console was used for analyses of DNA-arrays, as described^51.\nConceivably, the inhibitory effect of GR involves alterations of EGF-induced transcription. Specifically, GR might affect transcript synthesis or modulate EGF-induced RNA splicing in MCF10A cells. To address such models, cells were stimulated with EGF, DEX or the combination, mRNAs were isolated along a time course from 20 minutes to four hours, and the RNA was hybridized to Affymetrix Exon Arrays which is able to resolve small changes in splicing^19. In addition, confirmatory PCR analyses are provided."}, "MCF10A cells [1]": {"tested_on": "MCF10A cells", "test": "Annexin V / propidium iodide flow cytometry", "assay_type": "cell-based, human", "conditions": "MCF10A pre-treated 24 hours with EGF, DEX or the combination", "experimental": "FIG. 1J—MCF10A cells pre-treated for 24 hours with of EGF, DEX or the combination. Thereafter, cells were stained for the apoptosis marker annexin V and the necrosis marker propidium iodide (PI), and later assayed using flow cytometry."}, "[2]": {"tested_on": "MCF10A derivatives stably expressing ERRFI1-specific shRNAs", "test": "Migration assay of ERRFI1-depleted MCF10A derivatives", "assay_type": "cell-based, human", "conditions": "ERRFI1-depleted cells", "description": "FIG. 3A—Serum-starved MCF10A cells were treated with EGF or DEX. qPCR analysis was performed using RNA and primers corresponding to pre-mRNAs (dashed lines) or the mature forms (solid lines). FIG. 3B—A scheme depicting negative feedback regulators of EGFR signalling. FIGS. 3C-D—Cells were stimulated as in A and extracts were immunoblotted for ERRFI1, GR and ERK2. Normalized ERRFI1 signals are shown. FIGS. 3E-F—Active ERK signals (pERK) were determined, normalized and presented. FIG. 3G—MCF10A derivatives stably expressing ERRFI1-specific shRNAs were tested for migration following the indicated treatments. The results were analysed as in FIG. 1D. *p<0.05; ***p<0.0001 (one-way Anova). FIG. 3H—Serum-starved MCF10A cells were pre-incubated for 20 minutes with actinomycin D (1 μg/m1), and thereafter stimulated for the indicated time intervals with EGF or DEX. […] FIG. 3I—The pERK signals from FIG. 3H and additional experiments were quantified, normalized to total ERK2 levels and presented.\nCells (5×10^4 cell/insert) were plated in the upper compartment of a 24-well transwell tray (Corning, Acton, MA), and their migration was assayed^16. […] For collective migration, 8×10^4 cells were seeded in plastic insets (Ibidi), and after overnight incubation, the plastic barriers were removed and time-lapse images were recorded."}, "MCF10A cells [3]": {"tested_on": "MCF10A cells", "test": "Transwell migration assay of EGF-stimulated MCF10A cells", "assay_type": "cell-based, human", "conditions": "for inhibition of EGF-induced cell migration: MCF10A in transwell, EGF 10 ng/ml, DEX 100 nM, E2 30 nM, PRG 30 nM, MPA 100 nM, 20 hours", "description": "MCF10A cells were grown as described^16 and stimulated with EGF (10 ng/ml) or DEX (100 nM). siRNA transfections employed Oligofectamine (Invitrogen) and ON-Target SMART (Dharmacon, Lafayette, Colo.) oligonucleotides. Lapatinib (di-p-Toluenesulfonate Salt) was purchased from LC Laboratories. Anti GR antibody for immunostaining (sc-1004, SANTA CRUZ BIOTECHNOLOGY, INC.)\nCells (5×10^4 cell/insert) were plated in the upper compartment of a 24-well transwell tray (Corning, Acton, MA), and their migration was assayed^16. Cell invasion assays were performed using BioCoat Matrigel Invasion Chambers (BD Bioscience, Franklin Lakes, N.J.). For tracking, cells were seeded (3×10^3 cells/cm^2) on collagen-coated micro-slide (from Ibidi). For collective migration, 8×10^4 cells were seeded in plastic insets (Ibidi), and after overnight incubation, the plastic barriers were removed and time-lapse images were recorded."}, "[4]": {"tested_on": "N87 human gastric cancer cells", "test": "N87 tumor xenograft study with day or night dosing", "assay_type": "in vivo, mice", "description": "All animal experiments were approved by the institutional committee. C57BL/6 (CD45.2, Harlan) and knockout animals were maintained under defined flora conditions and at 12 hour light-dark cycles. For daily clock studies, female mice (10-12 week old) were divided into 2 groups; one was maintained in the day-night room, and the second group was located in a special room (with inverted day-light cycles). Mice were let acclimate for at least one week prior to protein and RNA extraction. For tumor xenograft studies, 20 athymic nude (nu/nu) mice were used and maintained in a Specific Pathogen Free environment. Animals (n=10 per group) were inoculated subcutaneously in the left leg (using a sterile 22-gauge needle) with 5×10^6 N87 cells. Mice were randomized into two groups, daily treated with Lapatinib by oral gavage (40 mg/kg) in the night (2 hours after the light off) and in the day (approximately 70 minutes before light on). Treatments were started 2 weeks after cell injection. Tumor width (W) and length (L) were measured once a week with a calliper and tumor volume (V) was calculated according to the formula: V=0.5×W^2×L."}, "DUSP1 and ERRFI1": {"tested_on": "DUSP1 and ERRFI1", "test": "qPCR of negative feedback regulators (pre-mRNA and mRNA)", "assay_type": "cell-based, human", "conditions": "serum-starved MCF10A, EGF 10 ng/ml, DEX 100 nM", "description": "as §1, §2\nAnalyses of defects in vulva formation in worms and aberrations in eye development in insects, two processes controlled by EGFR, helped define several evolutionary conserved and partly redundant negative feedback loops able to robustly terminate EGFR signalling^21. Since Module A (EGF^UP/DEX^UP) includes several orthologs of the invertebrate negative feedback loops, three of them were selected for further analysis. DUSP1 is the prototype of MAPK-specific phosphatases, which dephosphorylate the shared Thr-Xxx-Tyr motif of MAPKs. ERRFI1/MIG6 (also called RALT) is a previously identified steroid-inducible adaptor, which physically binds and inhibits the kinase domain of EGFR^5. […] By using primers specific for the nascent or the mature transcripts, de novo transcription of these three negative regulators was followed (FIG. 3A). […]"}, "glucocorticoid receptor": {"target": "T1, glucocorticoid receptor (Homo sapiens, UniProt P04150)", "T1 sequence (P04150 1-777)": "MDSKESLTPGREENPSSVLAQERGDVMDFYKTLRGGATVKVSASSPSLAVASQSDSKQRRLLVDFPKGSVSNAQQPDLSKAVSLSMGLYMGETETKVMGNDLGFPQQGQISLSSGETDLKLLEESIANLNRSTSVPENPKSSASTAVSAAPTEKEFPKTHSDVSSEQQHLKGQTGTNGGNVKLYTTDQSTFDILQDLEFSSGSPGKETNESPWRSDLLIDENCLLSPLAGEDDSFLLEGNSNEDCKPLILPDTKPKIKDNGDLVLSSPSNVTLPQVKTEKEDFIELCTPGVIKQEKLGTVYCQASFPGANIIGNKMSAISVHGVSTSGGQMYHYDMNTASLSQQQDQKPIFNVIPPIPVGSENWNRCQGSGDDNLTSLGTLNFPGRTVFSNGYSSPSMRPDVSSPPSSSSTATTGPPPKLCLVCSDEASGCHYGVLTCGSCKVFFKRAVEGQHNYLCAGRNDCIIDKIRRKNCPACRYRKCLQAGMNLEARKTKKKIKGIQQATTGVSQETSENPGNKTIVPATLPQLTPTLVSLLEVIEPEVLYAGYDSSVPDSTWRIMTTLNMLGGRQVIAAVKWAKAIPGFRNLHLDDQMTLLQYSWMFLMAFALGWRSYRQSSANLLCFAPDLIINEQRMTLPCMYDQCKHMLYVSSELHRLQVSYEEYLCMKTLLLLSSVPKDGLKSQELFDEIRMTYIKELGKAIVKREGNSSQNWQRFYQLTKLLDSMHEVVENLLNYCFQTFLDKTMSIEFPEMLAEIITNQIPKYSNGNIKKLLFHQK", "conditions": "cited from earlier work"}}}
{"compound": "C[C@@H]1C[C@H]2[C@@H]3CCC4=CC(=O)C=C[C@]4(C)[C@@]3(F)[C@@H](O)C[C@]2(C)[C@@]1(O)C(=O)CO", "note": "[DEX, dexamethasone]", "values": [{"measurement": "inhibitory effect on EGF-induced genes, share of maximal capacity", "setting": "EGF-induced genes", "value": 70, "unit": "%"}, {"measurement": "cellular toxicity, markers of apoptosis (annexin V) and necrosis (propidium iodide)", "setting": "MCF10A cells [1]", "value": "excluded the possibility of cellular toxicity"}, {"measurement": "inhibition of EGF-induced migration", "setting": "[2]", "value": 30, "unit": "%"}, {"measurement": "inhibition of EGF-induced migration", "setting": "MCF10A cells [3]; control cells", "value": 90, "unit": "%"}]}
{"compound": "CS(=O)(=O)CCNCc1ccc(-c2ccc3ncnc(Nc4ccc(OCc5cccc(F)c5)c(Cl)c4)c3c2)o1", "note": "[Lapatinib]", "values": [{"measurement": "therapeutic impact on tumor size and weight by time of administration", "setting": "[4]; 40 mg/kg/day oral gavage, just before the resting phase (ZT23) versus beginning of the active phase", "value": "statistically significant enhancement"}, {"measurement": "tumor angiogenesis (appearance of tumors)", "setting": "[4]; administration during the resting phase", "value": "inhibited tumor angiogenesis"}]}
{"compound": "EGF: epidermal growth factor, EGFR ligand used to stimulate MCF10A cells", "values": [{"measurement": "induction of DUSP1 and ERRFI1 transcripts", "setting": "DUSP1 and ERRFI1", "value": "3-5 fold"}]}
{"compound": "CC(=O)O[C@]1(C(C)=O)CC[C@H]2[C@@H]3C[C@H](C)C4=CC(=O)CC[C@]4(C)[C@H]3CC[C@@]21C", "note": "[MPA, medroxyprogesterone acetate]", "values": [{"measurement": "EC50", "setting": "glucocorticoid receptor", "value": "~10", "unit": "nM"}, {"measurement": "inhibition of EGF-induced cell migration", "setting": "MCF10A cells [3]", "value": "less potent"}]}
{"compound": "CC(=O)[C@H]1CC[C@H]2[C@@H]3CCC4=CC(=O)CC[C@]4(C)[C@H]3CC[C@]12C", "note": "[PRG, progesterone]", "values": [{"measurement": "inhibition of EGF-induced cell migration", "setting": "MCF10A cells [3]", "value": "weak or no activity"}]}
